What all share (format): biochemical
Experiment [1] is described as follows: Inhibition of [α-32P]UTP incorporation by 3′-dATP in the transcription reaction (3′-dNTP incorporation rate). Conditions: compared with wild type T7 RNA polymerase. The protocol: Ribonucleotide (NTP) and 3′-deoxynucleotide (3′-dNTP) incorporation rates of the mutant T7 RNA polymerase purified in Example 7 were measured as follows.
pBluescript(KS+) plasmid (Stratagene) linearized by reaction with a restriction endonuclease, PvuII, was used as a template for the transcription reaction, and 250 μM each of ATP, CTP, GTP, and UTP, 2 mM of spermidine-(HCl)3, 5 mM of DTT, 40 mM Tris/HCl pH 8.0, 0.1 μl of [α-^32P] UTP (3000 Ci/mmole), and 25 units of the mutant T7 RNA polymerase F644Y/L665P/F667Y were also used for the reaction. For two kinds of reaction mixture (with or without 3′-dATP, final concentration was 100 μM), the reaction was performed at 37° C. for 60 minutes. The whole reaction mixture was spotted on DE81 paper (Whatman), washed three times with phosphate buffer, and dried. The DE81 paper was placed into a scintillation vial, and radioactivity was measured using a scintillation counter (Beckman) for each reaction. Degree of inhibition of the [α-^32P] UTP incorporation was calculated by comparing the values obtained with and without 3′-dATP based on the measured radioactivity. The relative activity obtained from calculated inhibition degree and defined as a relative value to the inhibition degree of the wild type T7 RNA polymerase normalized to 1.000 was shown in Table 1.
The inhibition degree was calculated by using the wild type T7 RNA polymerase, T7 RNA polymerase F644Y, L665P/F667Y obtained in Example 3, mutant T7 RNA polymerase F644Y/L665P, F782Y, F733Y, F646Y or Y639F constructed and purified in the same manner as in Examples 2 and 3 for the reaction instead of the above F644Y/L665P/F667Y mutant, and relative activities are shown in Table 1.
For example, it is meant that the mutant T7 RNA polymerase F644Y/L665P/F667Y is 5.58 times more likely to incorporate 31-dATP in comparison with the wild type enzyme.

The nature of experiment [2]: In vitro transcription with a single dye terminator, sequence ladder analysed on ABI 377 (Example 4). Conditions: for incorporation efficiency for 3′-dCTP derivatives / peak intensities of the sequence ladders: compared with wild type; for peak intensities of the sequence ladders: FIG. 14 and FIG. 15. The protocol:
3′ -DNTP incorporation efficiency of the purified mutant T7 RNA polymerases F644Y and L665P/F667Y was compared with that of wild type T7 RNA polymerase as follows. In vitro transcription reaction was performed by, for example, a partially modified version of the method of Melton, D. A, [Nucleic Acids Res., 12:7035-7056 (1984)]. More specifically, the reaction was performed in a total volume of 10 μl containing a plasmid vector pBluescriptKS(+) having T7 promoter (Stratagene) linearized by the reaction with a restriction endonuclease PvuII or ScaI as a template, 150 μM of 5-carboxy-X-rhodamine-labeled 3′-deoxycytidine-5′-triphosphate which was a dye terminator prepared according to the method described in WO96/14434 as a derivative of 3′-dNTP, 500 μM of GTP and UTP, 250 μM of ATP and CTP, 8 mM Of MgCl2, 2 mM of spermidine-(HCl)3, 5 mM of DTT, 40 mM of Tris/HCl pH 8.0 (BRL, Gibco) and 25 units of wild type T7 RNA polymerase (BRL, Gibco or Nippon Gene) or the mutant T7 RNA polymerase F644Y or L665P/F667Y at 37° C. for 1 hour. Then, to remove the unreacted dye terminator remained in the reaction product, the transcription product was purified by gel filtration using Sephadex G-50 column (Pharmacia Biotec), and the purification product was evaporated to dryness using a centrifugal evaporator.
(§1) The dried reaction product was dissolved in 6 μl of formamide/EDTA/Blue dextran loading buffer according to the instruction manual Ver. 1.0 of ABI PRISM 377 DNA Sequencing System available from Perkin-Elmer Japan, and 2 μl of the solution was analyzed by ABI 377 DNA Sequencer and an analysis program using denatured gel for sequencing analysis which contained 6M urea/4% Long Ranger™ acrylamide solution (FMC).
The peak intensities of the sequence ladders obtained by using F644Y and L665P/F667Y are shown in FIG. 14 and FIG. 15 with the peak intensity obtained by using wild type T7 RNA polymerase.

In experiment [3] the test system is plasmid vector pBluescriptKS(+) having T7 promoter. Briefly: Sequencing reaction by the dye terminator method, linearized pBluescriptKS(+) template (Example 5). Conditions: four dye terminators; for sequence reading: 37° C., 1 hour, ABI 377; for peak intensity in sequencing reaction: in comparison with wild type T7 RNA polymerase. The procedure:
Sequencing reaction by the dye terminator method was performed utilizing the purified mutant T7 RNA polymerases F644Y and L665P/F667Y, and the wild type T7 RNA polymerase as follows for comparison.
For the in vitro transcription reaction, the method of Melton, D. A. (1984, Nucleic Acids Res., 12:7035-7056) exemplified in Example 4 was used. More specifically, the reaction was performed in a total reaction volume of 10 μl containing a plasmid vector pBluescriptKS (+) having T7 promoter linearized by the reaction with a restriction endonuclease PvuII or ScaI as a template, 5-carboxyrhodamine 6G-labeled 3′-deoxyadenosine-5′-triphosphate, 5-carboxyrhodamine 110-labeled 3′-deoxyguanosine-5′-triphosphate, 5-carboxy-X-rhodamine-labeled 3′-deoxycytidine-5′-triphosphate, and 5-carboxytetramethylrhodamine-labeled 3′-deoxyuridine-5′triphosphate, which were dye terminators prepared according to the method described in W096/14434 as derivatives of 3′-DNTP, 500 μM of GTP and UTP, 250 μM of ATP and CTP, 8 mM of MgCl2, 2 mM of spermidine-(HCl)3, 5 mM of DTT, 40 mM of Tris/HCl pH 8.0 (BRL, Gibco) and 25 units of wild type T7 RNA polymerase (BRL, Gibco or Nippon Gene) or the mutant T7 RNA polymerase F644Y at 37° C. for 1 hour. Then, to remove the unreacted dye terminators remained in the reaction product, the transcription product was purified by gel filtration using Sephadex G-50 column (Pharmacia Biotec), and the purification product was evaporated to dryness using a centrifugal evaporator.
as §1

Experiment [4] concerns DNA containing T7 promoter. Briefly: In vitro RNA synthesis activity (enzyme dilution method, plasmid containing T7 promoter as template). Particulars: compared with wild type T7 RNA polymerase. The source says: The T7 RNA polymerases introduced with mutations were purified, and their abilities of promoter sequence specific RNA synthesis and incorporation of ribonucleoside 5′-triphosphates including ATP, GTP, CTP, UTP and derivatives thereof, as well as 3′-dATP, 3′-dGTP, 3′-dCTP, 3′-dUTP and derivatives thereof were compared with those of wild type T7 RNA polymerase.
All of the mutant T7 RNA polymerases can be purified by principally the same method. The difference of mutation site may cause some difference in the expression level, and behavior in column chromatography. The purification method of mutant T7 RNA polymerase F644Y is exemplified hereinafter. The expression vector pT7RF644Y for F644Y was introduced into E. coli DH5∝, and the cells were cultured in a test tube containing LB culture medium containing antibiotic ampicillin. When the OD (600 nm) of the medium reached 0.4-0.6, isopropyl-β-thiogalactopyranoside (IPTG) was added to the culture to a final concentration of 0.4 mM, and the cultivation was further continued for additional 8 hours. Then, the E. coli cells were collected by centrifugation. Typically, 2 liters of culture medium affords 10 g of E. coli cells in wet weight. If the E. coli cells are not used immediately, they can be stored in a refrigerator at −20° C. Subsequent steps for purification of enzyme should be performed at a temperature lower than room temperature, preferably 0-5° C. unless otherwise indicated. The E. coli cells were washed with 10 times relative to the cell weight of a washing buffer (20 mM Tris-HCl, pH 8.1, 130 mM NaCl, 2 mM EDTANa2 at 25° C.), centrifuged again [5,000×g, 4° C., 10 minutes), suspended in 10 times in volume of a sonication buffer (50 mM Tris-HCl, pH 8.1, 100 mM NaCl, 0.1 mM EDTANa2, 5 mM dithiothreitol (DTT), 0.1 mM benzamidine, 30 μg/ml phenylmethylsulfonyl fluoride (PMSF), 10 μg/ml bacitracin], and sonicated by using Sonifier 450 (Branson) at 80W for more than 15 minutes to destroy the cells and reduce the viscosity of the cells. […]

On to “F644Y/F667Y: mutant T7 RNA polymerase with F644Y and F667Y mutations”, for which the “ability for incorporating 3′-dATP, 3′-dGTP, 3′-dCTP, 3′-dUTP and derivatives thereof” value (“ability for incorporating 3′-dATP” below) in experiment [1] is listed as “almost equal to that of the F644Y/L665P/F667Y mutant”.

As to “F644Y: T7 RNA polymerase in which F (phenylalanine) 644 was replaced with Y (tyrosine)”, in experiment [2] (150 μM dye terminator, 37° C., 1 hour), the “length of transcription product confirmed” value is given as “about 700 bases”. Moreover, the “length of sequence ladder relative to that afforded by the wild type T7 RNA polymerase” value in experiment [2] (150 μM dye terminator, 37° C., 1 hour, gel image FIG. 13) stood at 3 times. In addition, in experiment [2], the “incorporation efficiency for 3′-dCTP derivatives” value is listed as “improved”; the “peak intensities of the sequence ladders” value was “less fluctuation in comparison with the wild type, and the peak showed stronger signals”. In experiment [3], the sequence reading entry is given as “possible” and the “peak intensity in sequencing reaction” value is “higher peak intensity with less fluctuation”. Besides, in experiment [1], the “ability for incorporating 3′-dATP” value is recorded as “markedly improved”.

As for “F667Y: T7 RNA polymerase in which F667 was replaced with Y”, the “ability for incorporating 3′-dATP” value in experiment [1] is “comparable to that of the L665P/F667Y mutant”.

Regarding “F733Y: T7 RNA polymerase in which F733 was replaced with Y”, in experiment [4], the RNA synthesis activity entry is given as “slightly decreased”. In addition, the “ability for incorporating 3′-dATP” value in experiment [1] is “slightly improved”.

Take “F782Y: T7 RNA polymerase in which F782 was replaced with Y”: the “ability for incorporating 3′-dATP” value in experiment [1] is reported as “slightly improved”.

On to “F882Y: T7 RNA polymerase in which F882 was replaced with Y”, for which the RNA synthesis activity entry in experiment [4] was “markedly decreased”.

“L665P/F667Y: mutant T7 RNA polymerase with L665P and F667Y mutations”: in experiment [2], the “incorporation efficiency for 3′-dCTP derivatives” value was “improved”; the “peak intensities of the sequence ladders” value was “less fluctuation in comparison with the wild type, and the peak showed stronger signals”. In experiment [3], the sequence reading entry is given as “possible” and the “peak intensity in sequencing reaction” value is “higher peak intensity with less fluctuation”. In addition, the “ability for incorporating 3′-dATP” value in experiment [1] is “markedly improved”.

In the case of “Wild type: wild type T7 RNA polymerase, 883 amino acid residues, purified from E. coli harboring pT7R or commercially available [reference compound]”, the RNA synthesis activity entry in experiment [4] was “exhibited sufficient RNA synthesis activity”. Also, in experiment [3] (listed as wild type T7RNA polymerase (WT)), the sequence reading entry is reported as “could not be correctly performed”.

The values are drawn from US6867027B1, “RNA polymerase” (The Institute of Physical and Chemical Research, priority 1997, dated 2005).
